Data set [1] in a line: Tolerability (body weight) in Compound A resistant HCC827 mouse xenograft model. The note with it: for Final BW (g) mean ± SD: day 14; for BW (%) mean, percent body weight change: day 14 versus day of treatment initiation. Here is the method:
INC280-AA-3 was formulated in 0.25% MC (methylcellulose) 0.05% Tween 80 in water, solution. […] Animals were weighed on dosing days and doses were body weight adjusted. Tumor volumes were measured by digital caliper 3 times a week and body weights of all animals were recorded throughout the study.
Body weight was monitored daily and the % change in body weight was calculated as (BWcurrent−BWinitial)/(BWinitial)×100. Data is presented as percent body weight change from the day of treatment initiation.

The test system of data set [2] is EGFR and cMET phosphorylation. Briefly: Acute PD western blot of pEGFR and pMET in resistant NCI-HCC827 tumors. Type of data set: in vivo, SCID beige mice. The note with it: single dose; Compound A 30 mg/kg, INC280 10 mg/kg; tumors taken 6 hours post dose. An excerpt:
SCID beige mice bearing the Erlotinib resistant tumors (Animals 2-5), n=1 per group, a total of 4 groups and randomized 50 days post tumor fragment implantation with an average tumor volume of 1236.18 mm^3 and SD of 316.57 mm^3. Compound A resistant HCC827 tumors ([…]) were randomized into 4 groups (n=3 mice per group) 24 days post tumor fragment implantation with an average tumor volume of 963.24 mm^3 with SD 179.56 mm^3. Animals in each group received once daily oral administration of Compound A at 30 mg/kg or twice daily INC280-AA-3 at 10 mg/kg alone or in combination.
Evaluation of target inhibition of pEGFR and pMET were done by western blot analysis. 40 […] of tumor lysate proteins were electrophoresed per sample using Criterion 4-12% Bis-Tris gels (Bio-Rad, Cat #345-0124). Upon completion of protein transfer, membranes were incubated with 5% BSA (Sigma) in TBST (25 mM Tris, 150 mM NaCl, 0.1% Tween-20) for 1 h at room temperature to block non-specific binding. […]
On the technique in general: Immunoblotting shows a protein as a band on a membrane.

Another data set deals with HCC827. Nature of the data set: Cell proliferation assay (CellTiter-Glo), dose matrix combination, HCC827 parental. Type of data set: cell-based, human. The note with it: HCC827 parental line, 72 hours. The procedure: HCC827 was obtained from ATCC. HCC827 GR5 (resistant to Gefitinib) was obtained from Jeff Engleman lab at Massachusetts General Hospital. Both cells were cultured in RPMI-1640 (ATCC, #30-2001) with 10% FBS (Thermo scientific, #SH30071.03) and maintained in a 37° C., 5% CO2 incubator. Cells were passaged twice a week using TrypLE™ Express (Invitrogen, #12604-013), an animal origin-free recombinant enzyme used for dissociating adherent mammalian cells compare to the regular trypsin.
Cell viability was determined by measuring cellular ATP content using the CellTiter-Glo® (CTG) luminescent cell viability assay (Promega #G7573) according to the manufacturer's protocol. […] At the end of the drug treatment, 100 ul CTG reagent was added to each well to lyse the cells, and luminescence signals were recorded in the Envision plate reader (Perkin Elmer).
To evaluate the combination effect in a non-bias way and to identify synergistic effect at all possible concentrations, the combination studies were conducted with a “dose matrix”, where a combination is tested in all possible permutations of serially-diluted compounds. […] The synergistic interaction was analyzed using Chalice software (CombinatoRx, Cambridge Mass.). Synergy was calculated by comparing a combination's response to those of its single agents, against the drug-with-itself dose-additive reference model. […]

Data set [3] has as its system Compound A resistant NSCLC HCC827 tumor. Nature of the data set: Efficacy study in Compound A resistant HCC827 mouse xenograft model (GNF-11-308-138). Type of data set: in vivo, SCID beige mice. The note with it: for Individual tumor volume: single animals; for Tumor volume, group Mean: n=6; for Mean initial Tumor Volume (mm^3 ± SE): initial day of dosing.
Setting [4] is: Compound A 30 mg/kg QD, INC280 10 mg/kg BID.
Where [5] appears, read: day 0 post dosing (day 22 post implant).
Setting [6] is: day 2 post dosing (day 24 post implant).
Where [7] appears, read: day 5 post dosing (day 27 post implant).
Setting [8] is: day 7 post dosing (day 29 post implant).
Where [9] appears, read: day 9 post dosing (day 31 post implant).
The mark [10] stands for this setting: day 12 post dosing (day 34 post implant).
The mark [11] stands for this setting: day 14, Compound A 30 mg/kg QD, INC280 10 mg/kg BID, oral.
Setting [12] is: day 14 post dosing (day 36 post implant).
The mark [13] stands for this setting: Compound A 30 mg/kg QD, INC280 10 mg/kg BID, oral.

Each structure is given as a SMILES string. Several values for one entry are separate records, joined by “and”; a condition that tells them apart may be missing. Identical values can stand only once.

As to `Cc1cc(C(=O)Nc2nc3cccc(Cl)c3n2[C@@H]2CCCCN(C(=O)/C=C/CN(C)C)C2)ccn1` [Compound A, (R,E)-N-(7-chloro-1-(1-(4-(dimethylamino)but-2-enoyl)azepan-3-yl)-1H-benzo[d]imidazol-2-yl)-2-methylisonicotinamide], the “Final BW (g) mean ± SD” value in data set [1] (setting [4]) came out at 22.58 ± 1.00 g. Also, in data set [1], the “BW (%) mean, percent body weight change” value is 5.39%. Besides, the “Initial BW (g) mean ± SD” value in data set [1] (setting [4]) came to 21.43 ± 0.77 g. The “inhibition of EGFR and cMET phosphorylation in tumor lysates (western)” value in data set [2] is “selective depletion of pEGFR and pMET expression”. The “single agent response, cell viability” value in the data set with HCC827 is “only respond to Compound A”. In data set [3] (14 days, Compound A 30 mg/kg QD, INC280 10 mg/kg BID, oral, versus vehicle), the “anti-tumor activity in words” value was “not significantly different from vehicle”. In addition, the Individual tumor volume is 470.34 mm^3 and 502.24 mm^3 and 547.37 mm^3 and 597.98 mm^3 and 657.77 mm^3 and 694.21 mm^3 in data set [3] (setting [5]); 425.76 mm^3 and 474.70 mm^3 and 500.47 mm^3 and 718.94 mm^3 and 679.81 mm^3 and 723.63 mm^3 in data set [3] (setting [6]); 447.17 mm^3 and 509.01 mm^3 and 478.72 mm^3 and 709.28 mm^3 and 723.82 mm^3 and 730.32 mm^3 in data set [3] (setting [7]); 641.63 mm^3 and 591.63 mm^3 and 523.15 mm^3 and 792.15 mm^3 and 837.06 mm^3 and 800.58 mm^3 in data set [3] (setting [8]); 595.65 mm^3 and 822.67 mm^3 and 611.23 mm^3 and 877.37 mm^3 and 891.82 mm^3 and 940.84 mm^3 in data set [3] (setting [9]); 932.76 mm^3 and 885.77 mm^3 and 742.37 mm^3 and 1125.55 mm^3 and 1019.63 mm^3 and 1028.22 mm^3 in data set [3] (setting [10]). Besides, the Individual tumor volume in data set [3] (setting [12]) was 882.62 mm^3 and 1115.99 mm^3 and 727.98 mm^3 and 1076.46 mm^3 and 1368.14 mm^3 and 1208.36 mm^3. Also, the “Tumor volume, group Mean” value was 578.32 mm^3 in data set [3] (day 0 post dosing); 587.22 mm^3 in data set [3] (day 2 post dosing); 599.72 mm^3 in data set [3] (day 5 post dosing); 697.70 mm^3 in data set [3] (day 7 post dosing); 789.93 mm^3 in data set [3] (day 9 post dosing); 955.72 mm^3 in data set [3] (day 12 post dosing). In data set [3] (day 14 post dosing), the “Tumor volume, group Mean” value is 1063.26 mm^3. For the same compound, the “Mean final Tumor Volume (mm^3 ± SE)” value in data set [3] (setting [11]) is 1063.26 ± 93.45 mm^3. Further, the “Mean initial Tumor Volume (mm^3 ± SE)” value in data set [3] (setting [13]) is reported as 578.32 ± 35.84 mm^3.

Regarding `CNC(=O)c1ccc(-c2cnc3ncc(Cc4ccc5ncccc5c4)n3n2)cc1F` [INC280, 2-fluoro-N-methyl-4-[(7-quinolin-6-yl-methyl)-imidazo[1,2-b]triazin-2-yl]benzamide], the tolerability in words entry in data set [1] (14 day treatment, Compound A 30 mg/kg QD, INC280 10 mg/kg BID) is recorded as “well tolerated for rest of the study”. Besides, the “group body weight change” value in data set [1] (day 7) is reported as −8.5%; in data set [1] (day 8), −5.66%. Moreover, the “Final BW (g) mean ± SD” value in data set [1] (setting [4]) came out at 19.95 ± 1.58 g. The “BW (%) mean, percent body weight change” value in data set [1] was −3.83%. In addition, the “Initial BW (g) mean ± SD” value in data set [1] (setting [4]) amounted to 20.74 ± 0.79 g. Besides, in data set [2], the “inhibition of EGFR and cMET phosphorylation in tumor lysates (western)” value was “selective depletion of pEGFR and pMET expression”. The Individual tumor volume in data set [3] (setting [5]) was 456.20 mm^3 and 520.06 mm^3 and 543.63 mm^3 and 640.13 mm^3 and 655.67 mm^3 and 713.33 mm^3; in data set [3] (setting [6]), 531.11 mm^3 and 641.24 mm^3 and 502.64 mm^3 and 784.24 mm^3 and 667.19 mm^3 and 674.14 mm^3; in data set [3] (setting [7]), 869.50 mm^3 and 753.37 mm^3 and 556.93 mm^3 and 822.50 mm^3 and 628.26 mm^3 and 834.83 mm^3; in data set [3] (setting [8]), 690.94 mm^3 and 653.24 mm^3 and 589.97 mm^3 and 675.03 mm^3 and 699.40 mm^3 and 627.01 mm^3; in data set [3] (setting [9]), 646.47 mm^3 and 649.16 mm^3 and 572.94 mm^3 and 510.69 mm^3 and 613.71 mm^3 and 594.99 mm^3; in data set [3] (setting [10]), 688.69 mm^3 and 617.11 mm^3 and 487.07 mm^3 and 531.80 mm^3 and 432.97 mm^3 and 585.67 mm^3. Moreover, the Individual tumor volume in data set [3] (setting [12]) is 1030.71 mm^3 and 948.57 mm^3 and 521.81 mm^3 and 674.65 mm^3 and 598.62 mm^3 and 790.69 mm^3. Moreover, the “Tumor volume, group Mean” value is 588.17 mm^3 in data set [3] (day 0 post dosing); 633.43 mm^3 in data set [3] (day 2 post dosing); 744.23 mm^3 in data set [3] (day 5 post dosing); 655.93 mm^3 in data set [3] (day 7 post dosing); 597.99 mm^3 in data set [3] (day 9 post dosing); 557.22 mm^3 in data set [3] (day 12 post dosing). Further, the “Tumor volume, group Mean” value in data set [3] (day 14 post dosing) is on record as 760.84 mm^3. The “Mean T/C (percent treated versus control; negative = regression)” value in data set [3] (setting [11]) is 23%. Besides, in data set [3] (setting [11]), the “Mean final Tumor Volume (mm^3 ± SE)” value is 760.84 ± 81.62 mm^3. In data set [3] (setting [13]), the “Mean initial Tumor Volume (mm^3 ± SE)” value was 588.17 ± 39.56 mm^3.

(Values after patent US10195208B2, “Combination therapy” (Novartis AG, priority 2014, dated 2019).)
